Source: the supplement of paper PMC10307832

Tests used:
Test in all cases: relative viability (nuclei count vs DMSO), 5 days (fraction); higher = more cells survive
[1] = compound: C1=CC=C(C(=C1)C2=CC=C(C=C2)C3=CSC4=C3C(=C(C(=O)N4)C#N)O)O + Cc1cc(Nc2cc(N3CCN(C)CC3)nc(Sc3ccc(NC(=O)C4CC4)cc3)n2)n[nH]1 [Tozasertib] (partner 0.1 µM)
In short: (§1)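 Five library-drug doses in √10 steps were combined with a fixed anchor-drug dose, or a single drug was given alone, by pin tool to lung cancer cell lines in 1536-well plates the day after seeding. Nuclei were stained and counted after 5 days. Relative viability is the nuclei count in treated wells over that in vehicle wells, taken as the median of duplicate plates.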

Ricolinostat + Dasatinib = compound: O=C(CCCCCCNC(=O)c1cnc(N(c2ccccc2)c2ccccc2)nc1)NO [Ricolinostat] + Cc1nc(Nc2ncc(C(=O)Nc3c(C)cccc3Cl)s2)cc(N2CCN(CCO)CC2)n1 [Dasatinib] (partner 0.075 µM)
In short: as §1

[2] = compound: O=C(CCCCCCNC(=O)c1cnc(N(c2ccccc2)c2ccccc2)nc1)NO [Ricolinostat] + Nc1nc2[nH]cc(CCc3ccc(C(=O)N[C@@H](CCC(=O)O)C(=O)O)cc3)c2c(=O)[nH]1 [Pemetrexed] (partner 0.2 µM)
In short: as §1

TGX 221 + Pemetrexed = compound: CC1=CN2C(=O)C=C(N=C2C(=C1)C(C)NC3=CC=CC=C3)N4CCOCC4 [TGX 221] + Nc1nc2[nH]cc(CCc3ccc(C(=O)N[C@@H](CCC(=O)O)C(=O)O)cc3)c2c(=O)[nH]1 [Pemetrexed] (partner 0.2 µM)
In short: as §1

Cell Line	relative viability ([1]; first compound 0.08 µM)	relative viability ([1]; first compound 0.253 µM)	relative viability ([1]; first compound 0.8 µM)	relative viability ([1]; first compound 2.53 µM)	relative viability ([1]; first compound 8 µM)	relative viability (Ricolinostat + Dasatinib; first compound 0.253 µM)	relative viability (Ricolinostat + Dasatinib; first compound 0.8 µM)	relative viability (Ricolinostat + Dasatinib; first compound 2.53 µM)	relative viability ([2]; first compound 0.08 µM)	relative viability ([2]; first compound 0.253 µM)	relative viability ([2]; first compound 0.8 µM)	relative viability ([2]; first compound 2.53 µM)	relative viability (TGX 221 + Pemetrexed; first compound 0.08 µM)	relative viability (TGX 221 + Pemetrexed; first compound 0.253 µM)	relative viability (TGX 221 + Pemetrexed; first compound 0.8 µM)	relative viability (TGX 221 + Pemetrexed; first compound 2.53 µM)	relative viability (TGX 221 + Pemetrexed; first compound 8 µM)	relative viability (Ricolinostat + Dasatinib; first compound 0.08 µM)
A-427	0.188	0.209	0.248	0.224	0.215	0.621	0.583	0.471	0.711	0.941	0.828	0.832	0.992	0.987	0.963	0.989	0.953	
NCI-H2228	0.288	0.244	0.245	0.297	0.277	0.591	0.457	0.382	0.311	0.31	0.285	0.345	0.357	0.369	0.356	0.313	0.332	0.432
EMC-BAC-2	0.297	0.303	0.254	0.327	0.305	0.291	0.27	0.242	0.44	0.414	0.38	0.308	0.468	0.43	0.428	0.464	0.463	0.316
NCI-H2405	0.718	0.797	0.733	0.725	0.704	0.205	0.183	0.193	0.916	1.04	1.06	1.12	1.01	1.05	1.07	0.952	0.885	0.229
NCI-H1993	0.592	0.524	0.534	0.592	0.571	0.558	0.61	0.671	0.549	0.581	0.615	0.547	0.567	0.545	0.632	0.604	0.246	
LU99A	0.274	0.256	0.275	0.298	0.279	0.583	0.465	0.512	0.188	0.159	0.184	0.156	0.198	0.173	0.173	0.232	0.133	0.461
ChaGo-K-1	0.242	0.238	0.239	0.232	0.208	0.49	0.584	0.532	0.253	0.255	0.262	0.27	0.264	0.259	0.236	0.231	0.254	0.579
NCI-H1355	0.478	0.516	0.547	0.518	0.476	0.69	0.645	0.62	0.916	1.07	0.95	1.01	1.03	1.02	1.05	0.998	0.893	0.588
NCI-H838	0.264	0.271	0.285	0.309	0.268	0.318	0.287	0.452	0.236	0.273	0.259	0.208	0.255	0.232	0.235	0.232	0.231	
SK-MES-1	0.842	1.07	0.942	1.01	0.923	0.288	0.451	0.44	0.878	0.982	0.876	0.91	0.932	0.925	0.948	0.842	0.693	0.25
NCI-H460	0.395	0.429	0.345	0.461	0.296	0.459	0.444	0.42	0.0618	0.0585	0.0722	0.0727	0.0673	0.0618	0.0662	0.0757	0.0781	0.319
NCI-H522	0.523	0.435	0.548	0.541	0.541	0.884	0.946	0.872	0.972	1.03	1.05	0.924	0.811	1.01	1.13	1	0.915	0.867
HCC-78	0.465	0.41	0.611	0.503	0.375	0.438	0.356	0.281		0.84	0.902	0.88	0.827	0.928	0.771	0.877	0.921	
NCI-H358	0.107	0.112	0.104	0.0911	0.114	0.168	0.146	0.187	0.179	0.194	0.183	0.156	0.189	0.167	0.168	0.166	0.174	0.164
H3255	1.04	0.727	0.213	0.868	0.559	0.308	0.318	0.308	0.494	0.544	0.553	0.557	0.54	0.71	0.487	0.562	0.539	0.347
NCI-H2023	0.257	0.38	0.38	0.476	0.439	0.569	0.535	0.472	0.196	0.192	0.208	0.163	0.263	0.205	0.223	0.214	0.189	
NCI-H1944	0.269	0.281	0.269	0.251	0.228	0.212	0.194	0.201	0.565	0.588	0.565	0.39		0.552	0.533	0.6	0.562	0.189
LOU-NH91	0.669	0.715	0.612	0.637	0.645	0.543	0.558	0.533		0.327	0.378	0.367	0.446	0.409	0.341	0.446	0.367	0.453

Cell Line	relative viability ([1]; first compound 0.08 µM)	relative viability ([1]; first compound 0.253 µM)	relative viability ([1]; first compound 0.8 µM)	relative viability ([1]; first compound 2.53 µM)	relative viability ([1]; first compound 8 µM)	relative viability (Ricolinostat + Dasatinib; first compound 0.253 µM)	relative viability (Ricolinostat + Dasatinib; first compound 0.8 µM)	relative viability (Ricolinostat + Dasatinib; first compound 2.53 µM)	relative viability ([2]; first compound 0.08 µM)	relative viability ([2]; first compound 0.253 µM)	relative viability ([2]; first compound 0.8 µM)	relative viability ([2]; first compound 2.53 µM)	relative viability (TGX 221 + Pemetrexed; first compound 0.08 µM)	relative viability (TGX 221 + Pemetrexed; first compound 0.253 µM)	relative viability (TGX 221 + Pemetrexed; first compound 0.8 µM)	relative viability (TGX 221 + Pemetrexed; first compound 2.53 µM)	relative viability (TGX 221 + Pemetrexed; first compound 8 µM)	relative viability (Ricolinostat + Dasatinib; first compound 0.08 µM)
NCI-H2347	0.574	0.461	1.06	0.526	0.583	0.372	0.309	0.285	0.409	0.382	0.429	0.449	0.467	0.414	0.445	0.386	0.389	0.318
CAL-12T	0.272	0.334	0.305	0.337	0.282	0.417	0.48	0.664	0.884	1.15	1.28	1.37	1.12	0.976	1.21	1.25	1.17	0.422
RERF-LC-KJ	0.488	0.474	0.52	0.527	0.463	0.759	0.748	0.518	0.492	0.427	0.447	0.374	0.479	0.471	0.484	0.465	0.475	0.743
NCI-H650	0.62	0.821	0.637	0.837	0.683	0.463	0.365	0.314	0.643	0.912	0.861	0.734	0.87	0.894	0.919	0.882	0.926	0.36
NCI-H1395	0.666	0.843	0.804	0.716	0.772	0.383	0.368	0.403		0.801	0.804	0.746	0.73	0.766	0.709	0.604	0.724	
COR-L 105	0.386	0.341	0.358	0.383	0.379	0.368	0.397	0.401	0.901	1.08	1.2	1.24	1.1	1.08	0.857	1	0.81	
COR-L23	0.195	0.213	0.199	0.174	0.153	0.477	0.471	0.242	0.199	0.212	0.188	0.17	0.22	0.198	0.186	0.218	0.189	0.373
LXF-289	0.179	0.173	0.201	0.179	0.191	0.274	0.272	0.306	0.935	0.775	0.895	0.792	0.926	0.918	0.897	0.937	0.961	0.193
PC-14	0.63	0.753	0.542	0.556	0.436	0.248	0.267	0.233	0.147	0.139	0.141	0.195	0.135	0.125	0.134	0.145	0.118	0.243
EKVX	0.519	0.484	0.349	0.546	0.336	0.658	0.577	0.606	0.34	0.394	0.335	0.406	0.404	0.356	0.34	0.375	0.395	0.471
NCI-H322M	0.487	0.426	0.487	0.497	0.444	0.275	0.26	0.255	0.61	0.607	0.639	0.646	0.58	0.619	0.604	0.579	0.565	
NCI-H520	0.409	0.417	0.432	0.367	0.441	0.313	0.211	0.231		0.762	0.744	0.628	0.592	0.459	0.476	0.457	0.358	
LC-2-ad	0.502	0.539	0.487	0.429	0.425	0.566	0.482	0.455	0.32	0.272	0.28	0.269	0.272	0.282	0.287	0.259	0.265	0.41
NCI-H596	0.888	0.724	1.09	0.89	0.655	0.553	0.613	0.494	0.511	0.527	0.504	0.52	0.441	0.419	0.473	0.452	0.479	0.586
LCLC-97TM1	0.22	0.187	0.164	0.222	0.187	0.853	0.878	0.34	0.152	0.157	0.137	0.157	0.167	0.169	0.173	0.197	0.179	0.727
NCI-H1437	0.367	0.409	0.44	0.438	0.382	0.511	0.337	0.279	0.329	0.32	0.276	0.263	0.347	0.294	0.357	0.329	0.259	0.398
NCI-H1915	0.428	0.484		0.491	0.382	0.29	0.275	0.231	0.399	0.416	0.458	0.397	0.459	0.437	0.526	0.452	0.516	0.277
NCI-H441	0.801	0.855	0.815	0.61	0.768	0.586	0.601	0.538	0.267	0.25	0.289	0.272	0.238	0.224	0.231	0.28	0.266	
